# Assay results published in patent publication US8354424B2, “Method of treating actinic keratosis” (Medicis Pharmaceutical Corporation, priority 2005, dated 2013).
# Tested on: actinic keratosis lesions
# Experiment: Randomized, double-blind study, eight-week treatment period, topical cream on actinic keratosis lesions on the head
# Format: in vivo, human
# Conditions: formulation with about 0.3 wt-% compound, twice per week, about 8 weeks, compared to other formulations or regimens
# Description: A randomized, double-blind study was performed to evaluate single and multi-weekly doses of the formulations prepared above topically applied to actinic keratosis lesions on the head.
# Otherwise healthy white (n=280) subjects (15% female, 85% male) ranging in ages 38 to 89 years of age (median age of 66.5), inclusive, with actinic keratosis lesions on the head were enrolled in the study. […] The actinic keratosis lesions areas were on the scalp (36%) and face (64%).
# The study included an eight-week treatment period followed by an eight-week post-treatment period. […]
# Subjects completed interval visits at treatment initiation, 1, 2, 4, and 8 weeks after treatment was initiated and at four and eight-weeks after the end of treatment. Subjects were monitored for erythema and other treatment site conditions during the entire 16 weeks of the study. Erythema, as assessed by study investigators, was defined as intense, moderate, mild, or no redness of the skin at the treatment site and given an intensity score of severe, moderate, mild, or none, respectively.
# At the eight-week post-treatment visit, the treatment area was clinically evaluated for actinic keratosis lesions. Efficacy was measured as complete clearance of actinic keratosis lesions and partial clearance of actinic keratosis lesions at the eight-week post-treatment visit. […]
compound,measurement,value
"Cc1nc2c(N)nc3cccnc3c2n1CC(C)C [2-methyl-1-(2-methylpropyl)-1H-imidazo[4,5-c][1,5]naphthyridin-4-amine]",side effects,a low level of side effects
